In ChEMBL document CHEMBL1201862, “PubChem BioAssay data set” (2004):
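48-hour exposure; five concentrations; linearly interpolated endpoints. Here, GI50 denotes the concentration required for 50% inhibition of growth.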 Calls of active or inactive are those of the source. No stated cut-off is given here; in the data, active = GI50 up to about 1.1 µM and inactive = higher.

Assays:
Assay in all cases: inhibition of tumour cell growth, NCI panel, 48 h
[1] = system: HOP-62
[2] = system: SN12C
[3] = system: KM12
[4] = system: UO-31
[5] = system: SK-MEL-5
[6] = system: ACHN
[7] = system: UACC-62
[8] = system: SF-539
[9] = system: SR
[10] = system: CAKI-1
[11] = system: COLO 205
[12] = system: SNB-19
[13] = system: SK-MEL-28
[14] = system: NCI-H460
[15] = system: BT-549
[16] = system: NCI-H522
[17] = system: LOX IMVI
[18] = system: 786-0
[19] = system: HOP-92
[20] = system: SNB-78

Row | SMILES | GI50 [1] | GI50 [2] | GI50 [3] | GI50 [4] | GI50 [5] | GI50 [6] | GI50 [7] | GI50 [8] | GI50 [9] | GI50 [10] | GI50 [11] | GI50 [12] | GI50 [13] | GI50 [14] | GI50 [15] | GI50 [16] | GI50 [17] | GI50 [18] | GI50 [19] | GI50 [20]
1 | Cc1c2cc[n+](C)c(C)c2cc2c1[nH]c1ccccc12 | 3.16 µM (inactive) | 0.627 µM (active) | 2.65 µM (inactive) | 67.6 µM (inactive) | 2.44 µM (inactive) | 36.3 µM (inactive) | 11.3 µM (inactive) | 2.96 µM (inactive) | > 26.6 µM (inactive) | 31.3 µM (inactive) | 1.57 µM (inactive) | 0.8 µM (active) | 5.41 µM (inactive) | 3.37 µM (inactive) | 2.44 µM (inactive) | 2.86 µM (inactive) | 21.7 µM (inactive) | 0.646 µM (active) | 7.46 µM (inactive) | 5.05 µM (inactive)
2 | O=C(Nc1nnn[nH]1)c1nc(O)cc(-c2ccccc2)n1 | > 100 µM (inactive) | > 100 µM (inactive) | > 100 µM (inactive) | > 100 µM (inactive) | > 100 µM (inactive) | > 100 µM (inactive) | > 100 µM (inactive) |  | > 100 µM (inactive) | > 100 µM (inactive) | > 100 µM (inactive) | > 100 µM (inactive) | > 100 µM (inactive) | > 100 µM (inactive) |  | > 100 µM (inactive) |  | > 100 µM (inactive) | > 100 µM (inactive) | > 100 µM (inactive)
3 | COc1ccc(/C=C2\C(=O)N(C(=O)c3ccc(NC(C)=O)cc3)N=C2C)cc1OC | > 100 µM (inactive) | > 100 µM (inactive) | > 100 µM (inactive) | > 100 µM (inactive) | > 100 µM (inactive) | > 100 µM (inactive) |  | > 100 µM (inactive) | > 100 µM (inactive) | > 100 µM (inactive) | > 100 µM (inactive) | > 100 µM (inactive) | > 100 µM (inactive) | > 100 µM (inactive) |  | > 100 µM (inactive) | > 100 µM (inactive) | > 100 µM (inactive) |  | > 100 µM (inactive)
4 | CC(=O)O[C@H]1C(=O)[C@@]2(C)[C@H]([C@H](OC(=O)c3ccccc3)[C@]3(O)C[C@H](OC(=O)[C@H](O)[C@@H](NC(=O)c4ccccc4)c4ccccc4)C(C)=C1C3(C)C)[C@]1(OC(C)=O)CO[C@@H]1C[C@@H]2O [PACLITAXEL] | 0.0129 µM (active) | 0.00481 µM (active) |  | 1.09 µM (active) | 0.00388 µM (active) | 0.661 µM (active) | 0.00419 µM (active) | 0.00373 µM (active) |  | 0.203 µM (active) | 0.00303 µM (active) | 0.0121 µM (active) |  | 0.00296 µM (active) | 0.0327 µM (active) | 0.00464 µM (active) | 0.00355 µM (active) | 0.0337 µM (active) |  | 0.00982 µM (active)
5 | COc1cc(-c2cccs2)sc1-c1cccs1 |  | 81.8 µM (inactive) | 27.7 µM (inactive) | 38.2 µM (inactive) | 29.7 µM (inactive) | 53.5 µM (inactive) | 40.9 µM (inactive) | 73.8 µM (inactive) | 17.7 µM (inactive) |  | 13.2 µM (inactive) | > 100 µM (inactive) | 34 µM (inactive) | 26 µM (inactive) |  | 31 µM (inactive) | 46.2 µM (inactive) | 39.3 µM (inactive) | 24.5 µM (inactive) | 36.2 µM (inactive)
6 | C[C@@H]1[C@H](c2ccccc2)O[B-]2(c3ccc(Br)cc3)OC(=O)C[N+]12C (stereo not given in full) | > 100 µM (inactive) | > 100 µM (inactive) | > 100 µM (inactive) | 66.5 µM (inactive) | > 100 µM (inactive) | 86.9 µM (inactive) | > 100 µM (inactive) | > 100 µM (inactive) | > 100 µM (inactive) | 53.3 µM (inactive) | > 100 µM (inactive) | > 100 µM (inactive) | 0.1 µM (active) | > 100 µM (inactive) |  | > 100 µM (inactive) | > 100 µM (inactive) | > 100 µM (inactive) | 44.3 µM (inactive) | 35.4 µM (inactive)
7 | CSC(=N\c1ccccc1)/N=C(\SCc1ccccc1)N(C)C | 1.7 µM (inactive) | 1.02 µM (active) | 0.48 µM (active) | 1.46 µM (inactive) | 1.47 µM (inactive) | 1 µM (active) | 0.555 µM (active) | 1.28 µM (inactive) | 0.16 µM (active) | 0.927 µM (active) | 0.407 µM (active) | 1.39 µM (inactive) | 0.581 µM (active) | 0.161 µM (active) | 1.42 µM (inactive) | 0.21 µM (active) | 0.189 µM (active) | 0.531 µM (active) | 1.4 µM (inactive) | 1.63 µM (inactive)
8 | O=c1[nH]cc(OCC(F)(F)F)c(=O)[nH]1 | > 100 µM (inactive) | > 100 µM (inactive) | > 100 µM (inactive) | > 100 µM (inactive) | > 100 µM (inactive) | > 100 µM (inactive) | > 100 µM (inactive) | > 100 µM (inactive) | > 100 µM (inactive) | > 100 µM (inactive) | > 100 µM (inactive) | > 100 µM (inactive) | > 100 µM (inactive) | > 100 µM (inactive) |  | > 100 µM (inactive) | > 100 µM (inactive) | > 100 µM (inactive) | > 100 µM (inactive) | > 100 µM (inactive)
